Assay results published in ChEMBL document CHEMBL1201862, “PubChem BioAssay data set” (2004).
Active and inactive are the calls of the source.

Legend:
HEK293 [1] = assay: cells; conditions: Homo sapiens
HEK293 [2] = assay: cells; conditions: Homo sapiens; remark: listed apart in the source
HeLa = assay: ATP-based viability loss in HeLa cells – cell-based, CellTiter-Glo luminescence, cherry-pick samples, cytotoxicity control for MITF activator project, dose response (AID 540259); type: functional; conditions: Homo sapiens
Cytochrome P450 2C19 = Cytochrome P450 2C19 (Homo sapiens, UniProt P33261); assay: Cytochrome panel assay with activity outcomes. Panel member name: p450-cyp2c19 Compounds with AC50 equal or less than 10 uM are considered active; type: functional
Sequence of Cytochrome P450 2C19 (P33261 whole entry): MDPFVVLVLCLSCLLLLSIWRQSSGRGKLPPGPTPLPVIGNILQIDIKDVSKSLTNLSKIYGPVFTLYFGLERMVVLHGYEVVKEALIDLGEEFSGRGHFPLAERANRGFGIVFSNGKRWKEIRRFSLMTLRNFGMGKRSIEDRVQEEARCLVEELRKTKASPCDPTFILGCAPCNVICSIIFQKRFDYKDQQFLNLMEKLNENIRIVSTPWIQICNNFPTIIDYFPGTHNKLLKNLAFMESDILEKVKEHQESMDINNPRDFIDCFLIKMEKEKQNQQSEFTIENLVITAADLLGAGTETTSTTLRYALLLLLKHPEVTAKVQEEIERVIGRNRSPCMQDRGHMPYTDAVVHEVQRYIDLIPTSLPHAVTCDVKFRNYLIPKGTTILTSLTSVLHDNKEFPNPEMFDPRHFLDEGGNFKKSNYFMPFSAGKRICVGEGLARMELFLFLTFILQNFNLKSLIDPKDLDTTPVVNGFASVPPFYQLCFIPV

Cytochrome P450 3A4 [3] = molecular target: T1, Cytochrome P450 3A4 (Homo sapiens, UniProt P08684);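 also: CYP3A4 tested as one member of a cytochrome P450 panel screen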
T1 sequence (P08684 whole entry): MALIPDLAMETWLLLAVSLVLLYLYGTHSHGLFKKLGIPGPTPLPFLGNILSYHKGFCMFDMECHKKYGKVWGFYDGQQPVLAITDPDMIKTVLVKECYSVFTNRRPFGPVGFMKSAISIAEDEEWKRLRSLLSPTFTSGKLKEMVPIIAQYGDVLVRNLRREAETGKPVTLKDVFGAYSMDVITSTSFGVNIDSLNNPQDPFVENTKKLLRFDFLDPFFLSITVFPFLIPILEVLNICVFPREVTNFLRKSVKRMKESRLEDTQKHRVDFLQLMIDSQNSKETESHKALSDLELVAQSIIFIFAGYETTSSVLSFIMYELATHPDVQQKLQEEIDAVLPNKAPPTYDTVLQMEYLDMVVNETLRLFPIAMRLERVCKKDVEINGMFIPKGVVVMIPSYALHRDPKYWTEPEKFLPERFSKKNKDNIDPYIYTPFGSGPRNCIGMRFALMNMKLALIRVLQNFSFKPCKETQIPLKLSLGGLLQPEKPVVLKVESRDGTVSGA

Cytochrome P450 2C9 = Cytochrome P450 2C9 (Homo sapiens, UniProt P11712)
Sequence of Cytochrome P450 2C9 (P11712 whole entry): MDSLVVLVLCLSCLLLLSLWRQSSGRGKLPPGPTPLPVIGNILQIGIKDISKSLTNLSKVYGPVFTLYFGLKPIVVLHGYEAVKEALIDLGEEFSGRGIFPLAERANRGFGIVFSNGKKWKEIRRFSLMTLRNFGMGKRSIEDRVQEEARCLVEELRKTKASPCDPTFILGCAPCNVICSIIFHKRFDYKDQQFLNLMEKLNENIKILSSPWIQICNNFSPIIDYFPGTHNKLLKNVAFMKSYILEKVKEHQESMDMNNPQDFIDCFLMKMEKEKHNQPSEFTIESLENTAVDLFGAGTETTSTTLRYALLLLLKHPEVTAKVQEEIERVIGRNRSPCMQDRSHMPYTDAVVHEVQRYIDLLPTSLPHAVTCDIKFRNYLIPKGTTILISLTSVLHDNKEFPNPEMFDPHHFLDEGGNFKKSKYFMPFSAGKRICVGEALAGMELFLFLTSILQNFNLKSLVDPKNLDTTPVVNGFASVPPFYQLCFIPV

Cytochrome P450 2D6 = Cytochrome P450 2D6 (Homo sapiens, UniProt P10635);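 also: CYP2D6 member of a cytochrome P450 panel assay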
Sequence of Cytochrome P450 2D6 (P10635 whole entry): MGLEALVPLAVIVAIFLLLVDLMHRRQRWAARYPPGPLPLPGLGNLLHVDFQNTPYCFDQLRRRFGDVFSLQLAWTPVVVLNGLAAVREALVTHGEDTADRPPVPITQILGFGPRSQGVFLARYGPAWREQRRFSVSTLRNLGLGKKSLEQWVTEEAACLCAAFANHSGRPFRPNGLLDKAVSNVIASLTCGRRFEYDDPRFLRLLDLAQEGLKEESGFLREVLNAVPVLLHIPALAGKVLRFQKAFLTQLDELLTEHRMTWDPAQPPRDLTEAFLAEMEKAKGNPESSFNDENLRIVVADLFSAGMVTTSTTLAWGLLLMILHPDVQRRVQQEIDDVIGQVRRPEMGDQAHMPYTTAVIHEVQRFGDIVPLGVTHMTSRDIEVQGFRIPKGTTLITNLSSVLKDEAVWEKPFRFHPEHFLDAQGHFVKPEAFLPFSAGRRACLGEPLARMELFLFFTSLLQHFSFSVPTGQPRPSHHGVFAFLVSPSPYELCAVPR

[4] = molecular target: Dual specificity protein kinase CLK1 (Homo sapiens, UniProt P49759); assay: inhibition of human CLK1 activity – biochemical, cherry-picked samples, selectivity assay for Dyrk1A inhibitor project, dose response (AID 588811)
Sequence of Dual specificity protein kinase CLK1 (P49759 whole entry): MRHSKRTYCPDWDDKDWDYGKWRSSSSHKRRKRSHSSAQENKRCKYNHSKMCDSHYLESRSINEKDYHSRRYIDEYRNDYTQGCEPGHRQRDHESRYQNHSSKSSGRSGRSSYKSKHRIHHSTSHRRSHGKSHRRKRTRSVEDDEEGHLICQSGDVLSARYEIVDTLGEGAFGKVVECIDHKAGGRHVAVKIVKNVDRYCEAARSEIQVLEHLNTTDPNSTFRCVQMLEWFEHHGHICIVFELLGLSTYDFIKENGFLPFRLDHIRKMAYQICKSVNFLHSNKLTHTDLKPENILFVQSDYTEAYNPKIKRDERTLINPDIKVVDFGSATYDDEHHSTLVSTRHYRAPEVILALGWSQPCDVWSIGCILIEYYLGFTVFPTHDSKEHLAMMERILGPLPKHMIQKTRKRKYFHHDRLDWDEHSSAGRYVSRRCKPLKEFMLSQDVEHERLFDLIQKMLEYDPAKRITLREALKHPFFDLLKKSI

[5] = molecular target: Dual specificity tyrosine-phosphorylation-regulated kinase 1A (Rattus norvegicus, UniProt Q63470); type: biochemical, Homo sapiens
[6] = HEK-293T viability loss after treatment – luminescence, T-cell screen hits, cytotoxicity control for TCR NF-kB inhibitor project, dose response (AID 489026); type: functional, cell-based;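 also: cells exposed to compound about 14 hours before the viability readout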
[7] = viability loss in HeLa cells – cytotoxicity control for MgcRacGAP inhibitor project, dose response (AID 624300); type: functional
[8] = molecular target: T2, Rac GTPase-activating protein 1 (Homo sapiens, UniProt Q9H0H5); assay: blockers of MgcRacGAP-driven Rac1 GTP hydrolysis – biochemical, ADP Hunter fluorescence, primary and confirmatory, confirmation (AID 624330); type: functional
T2 sequence (Q9H0H5 whole entry): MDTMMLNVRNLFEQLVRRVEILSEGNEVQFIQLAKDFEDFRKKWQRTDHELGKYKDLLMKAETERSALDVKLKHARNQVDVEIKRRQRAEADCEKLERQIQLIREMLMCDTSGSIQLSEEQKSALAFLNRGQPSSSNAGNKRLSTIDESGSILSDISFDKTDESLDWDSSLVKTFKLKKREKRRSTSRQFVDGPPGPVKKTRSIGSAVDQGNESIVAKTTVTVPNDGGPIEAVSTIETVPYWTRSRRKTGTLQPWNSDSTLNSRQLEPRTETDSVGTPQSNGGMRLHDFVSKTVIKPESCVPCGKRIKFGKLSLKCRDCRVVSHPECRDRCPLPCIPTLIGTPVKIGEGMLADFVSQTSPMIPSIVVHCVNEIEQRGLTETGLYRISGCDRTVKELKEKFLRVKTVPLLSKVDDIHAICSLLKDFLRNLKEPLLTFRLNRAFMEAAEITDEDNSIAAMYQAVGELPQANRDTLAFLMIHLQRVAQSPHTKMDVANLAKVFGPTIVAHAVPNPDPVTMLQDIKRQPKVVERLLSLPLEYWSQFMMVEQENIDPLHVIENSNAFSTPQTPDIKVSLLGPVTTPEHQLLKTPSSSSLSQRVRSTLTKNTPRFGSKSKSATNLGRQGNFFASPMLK

[9] = molecular target: Alkaline phosphatase, placental type (Homo sapiens, UniProt P05187); assay: human placental alkaline phosphatase inhibition – biochemical, luminescence, confirmation (AID 1512); type: functional
Sequence of Alkaline phosphatase, placental type (P05187 whole entry): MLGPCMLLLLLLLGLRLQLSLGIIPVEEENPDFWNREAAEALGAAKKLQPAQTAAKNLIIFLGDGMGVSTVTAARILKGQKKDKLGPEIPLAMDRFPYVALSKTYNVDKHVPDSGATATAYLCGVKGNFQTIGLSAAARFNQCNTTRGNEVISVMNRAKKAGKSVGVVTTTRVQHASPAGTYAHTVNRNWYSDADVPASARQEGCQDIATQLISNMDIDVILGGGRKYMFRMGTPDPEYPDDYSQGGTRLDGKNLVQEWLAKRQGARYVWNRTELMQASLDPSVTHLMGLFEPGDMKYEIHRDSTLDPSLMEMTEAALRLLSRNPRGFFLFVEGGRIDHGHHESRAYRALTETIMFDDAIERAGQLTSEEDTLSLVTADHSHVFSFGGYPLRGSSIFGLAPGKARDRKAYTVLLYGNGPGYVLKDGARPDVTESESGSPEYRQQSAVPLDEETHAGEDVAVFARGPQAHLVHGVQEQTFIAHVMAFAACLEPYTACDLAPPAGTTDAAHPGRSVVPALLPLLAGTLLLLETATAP

[10] = molecular target: T3, Alkaline phosphatase, tissue-nonspecific isozyme (Homo sapiens, UniProt P05186); assay: potency against alkaline phosphatase TNAP – biochemical, luminescent, dose response, SAR follow-up (AID 1056)
T3 sequence (P05186 whole entry): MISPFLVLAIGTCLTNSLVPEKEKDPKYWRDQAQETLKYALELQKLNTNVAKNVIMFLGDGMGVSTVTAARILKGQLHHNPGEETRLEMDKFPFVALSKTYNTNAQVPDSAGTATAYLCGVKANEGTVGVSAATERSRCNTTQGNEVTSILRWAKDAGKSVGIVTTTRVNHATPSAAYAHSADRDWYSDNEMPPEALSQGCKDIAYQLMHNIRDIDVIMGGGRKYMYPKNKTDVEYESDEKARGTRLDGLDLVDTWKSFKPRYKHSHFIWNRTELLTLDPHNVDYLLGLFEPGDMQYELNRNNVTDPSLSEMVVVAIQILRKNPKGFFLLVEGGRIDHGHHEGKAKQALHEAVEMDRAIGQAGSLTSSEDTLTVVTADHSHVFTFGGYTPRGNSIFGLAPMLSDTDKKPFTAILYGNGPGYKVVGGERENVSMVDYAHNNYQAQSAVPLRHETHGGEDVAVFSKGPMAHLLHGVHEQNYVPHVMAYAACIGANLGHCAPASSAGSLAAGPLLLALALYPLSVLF

Cytochrome P450 3A4 [11] = molecular target: T1, Cytochrome P450 3A4; remark: listed apart in the source
[12] = Luminescence Cell-Based Dose Confirmation HTS to Identify Activators of 5'UTR Stem-Loop Driven Alpha-Synuclein mRNA Translation in H4 Neuroglioblastoma Cells. [Related pubchem assays: 1829 (Project Summary), 1814 (Primary HTS)]; type: functional
[13] = Luminescence Cell-Based Dose Response HTS to Identify Activators of Luciferase Translation or Activity in H4 […] Cells. [Related pubchem assays: 1829 (Project Summary), 1814 (Primary HTS)]; type: functional
H4 = assay: Luminescence Cell-Based Dose Response HTS to Identify Activators of 5'UTR Stem-Loop Driven Prion Protein mRNA Translation in H4 Neuroglioblastoma Cells. [Related pubchem assays: 1829 (Project Summary), 1814 (Primary HTS)]; type: functional; conditions: Homo sapiens
[14] = molecular target: DNA damage-inducible transcript 3 protein (Mus musculus, UniProt P35639); type: functional, Cricetulus griseus
Sequence of DNA damage-inducible transcript 3 protein (P35639 whole entry): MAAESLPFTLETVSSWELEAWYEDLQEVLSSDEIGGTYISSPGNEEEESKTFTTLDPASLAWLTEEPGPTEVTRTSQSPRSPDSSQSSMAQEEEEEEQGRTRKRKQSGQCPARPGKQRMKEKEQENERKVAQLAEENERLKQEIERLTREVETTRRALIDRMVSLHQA

X-box-binding protein 1 = X-box-binding protein 1 (Homo sapiens, UniProt P17861); type: functional, Cricetulus griseus;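 also: confirmatory dose-response counter-screen serving a CHOP assay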
Sequence of X-box-binding protein 1 (P17861 whole entry): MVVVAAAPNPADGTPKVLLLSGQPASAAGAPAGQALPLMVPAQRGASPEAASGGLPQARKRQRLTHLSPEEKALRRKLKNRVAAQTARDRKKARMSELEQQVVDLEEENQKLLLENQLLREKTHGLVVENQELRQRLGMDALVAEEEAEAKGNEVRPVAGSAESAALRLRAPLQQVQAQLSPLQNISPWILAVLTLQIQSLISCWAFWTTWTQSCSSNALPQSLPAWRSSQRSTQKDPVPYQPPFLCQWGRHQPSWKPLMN

Vero = assay: cells; type: functional; conditions: Chlorocebus sabaeus
HEK293 [15] = assay: inhibition of NOD1-driven NF-kB reporter – cell-based, luminescence, uHTS, primary screen (AID 1578); type: functional; conditions: Homo sapiens
HEK293 [16] = assay: cells; type: functional, cell-based; conditions: Homo sapiens
HEK293 [17] = assay: cells; type: functional, cell-based; conditions: Homo sapiens; remark: listed apart in the source
[18] = molecular target: Nucleotide-binding oligomerization domain-containing protein 2 (Homo sapiens, UniProt Q9HC29); assay: inhibition of NOD2-driven NF-kB reporter – cell-based, luminescence, uHTS, HEK293 (AID 1566); type: functional
Sequence of Nucleotide-binding oligomerization domain-containing protein 2 (Q9HC29 whole entry, the tested form may be a part): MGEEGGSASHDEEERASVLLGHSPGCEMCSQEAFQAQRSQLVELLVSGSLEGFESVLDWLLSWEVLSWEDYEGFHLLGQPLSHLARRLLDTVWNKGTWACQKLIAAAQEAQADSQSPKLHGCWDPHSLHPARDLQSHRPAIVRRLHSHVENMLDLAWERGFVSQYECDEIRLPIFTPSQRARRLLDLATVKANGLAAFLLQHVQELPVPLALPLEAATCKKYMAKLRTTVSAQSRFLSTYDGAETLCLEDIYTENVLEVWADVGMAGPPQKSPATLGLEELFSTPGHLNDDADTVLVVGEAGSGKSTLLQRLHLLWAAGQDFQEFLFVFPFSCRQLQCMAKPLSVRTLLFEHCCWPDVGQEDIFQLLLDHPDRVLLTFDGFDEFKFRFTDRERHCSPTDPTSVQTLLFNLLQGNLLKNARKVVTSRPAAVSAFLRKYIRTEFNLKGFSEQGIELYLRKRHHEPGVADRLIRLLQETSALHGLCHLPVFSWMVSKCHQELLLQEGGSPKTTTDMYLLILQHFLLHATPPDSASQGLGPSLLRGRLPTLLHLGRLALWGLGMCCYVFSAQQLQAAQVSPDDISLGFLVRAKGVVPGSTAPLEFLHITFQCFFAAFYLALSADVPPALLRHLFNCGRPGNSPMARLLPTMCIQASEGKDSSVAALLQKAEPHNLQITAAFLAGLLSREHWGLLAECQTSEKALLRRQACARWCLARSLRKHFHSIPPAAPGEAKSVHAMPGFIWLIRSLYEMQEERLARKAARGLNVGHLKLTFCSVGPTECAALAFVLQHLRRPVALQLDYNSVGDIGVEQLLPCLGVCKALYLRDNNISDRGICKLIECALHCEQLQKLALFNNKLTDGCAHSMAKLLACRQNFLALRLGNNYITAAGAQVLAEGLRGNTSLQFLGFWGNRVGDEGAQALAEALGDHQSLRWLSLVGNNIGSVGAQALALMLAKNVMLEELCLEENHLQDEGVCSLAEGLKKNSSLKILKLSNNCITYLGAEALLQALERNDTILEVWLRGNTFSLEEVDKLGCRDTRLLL

HEK293 [19] = assay: NOD2 signaling inhibitors in MDP-stimulated cells, cell-based, uHTS, luminescence (AID 2001); type: functional; conditions: Homo sapiens
HEK293 [20] = assay: cells; type: functional, cell-based; conditions: Homo sapiens; remark: listed apart in the source
[21] = molecular target: T4, Heat shock factor protein 1 (Mus musculus, UniProt P38532); assay: enhancement of HSF1-driven luciferase signal – cell-based, NIH3T3, luminescence, dose retest, confirmation (AID 435004); type: functional;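 also: stress induced by proteasome inhibitor MG132 added 30 min after compound; luciferase reporter driven by HSF1 response element in NIH3T3 cells; actives raise luminescence as potentiators of the MG132 stress response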
T4 sequence (P38532 whole entry): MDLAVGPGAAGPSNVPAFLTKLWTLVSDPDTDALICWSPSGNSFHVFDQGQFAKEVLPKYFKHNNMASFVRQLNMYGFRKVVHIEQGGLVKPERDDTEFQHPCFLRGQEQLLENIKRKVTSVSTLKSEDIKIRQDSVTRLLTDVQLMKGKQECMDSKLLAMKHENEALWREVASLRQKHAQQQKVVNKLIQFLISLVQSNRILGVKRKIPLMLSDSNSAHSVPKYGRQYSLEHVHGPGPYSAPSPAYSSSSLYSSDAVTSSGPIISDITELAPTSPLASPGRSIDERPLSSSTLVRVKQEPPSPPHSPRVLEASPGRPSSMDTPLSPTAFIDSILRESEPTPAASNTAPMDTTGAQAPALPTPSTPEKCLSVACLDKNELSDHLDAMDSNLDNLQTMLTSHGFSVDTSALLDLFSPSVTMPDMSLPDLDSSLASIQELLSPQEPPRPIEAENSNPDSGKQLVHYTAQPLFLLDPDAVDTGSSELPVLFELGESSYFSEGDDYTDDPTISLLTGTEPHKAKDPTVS

[22] = molecular target: Glyceraldehyde-3-phosphate dehydrogenase (Homo sapiens, UniProt P04406)
Sequence of Glyceraldehyde-3-phosphate dehydrogenase (P04406 whole entry): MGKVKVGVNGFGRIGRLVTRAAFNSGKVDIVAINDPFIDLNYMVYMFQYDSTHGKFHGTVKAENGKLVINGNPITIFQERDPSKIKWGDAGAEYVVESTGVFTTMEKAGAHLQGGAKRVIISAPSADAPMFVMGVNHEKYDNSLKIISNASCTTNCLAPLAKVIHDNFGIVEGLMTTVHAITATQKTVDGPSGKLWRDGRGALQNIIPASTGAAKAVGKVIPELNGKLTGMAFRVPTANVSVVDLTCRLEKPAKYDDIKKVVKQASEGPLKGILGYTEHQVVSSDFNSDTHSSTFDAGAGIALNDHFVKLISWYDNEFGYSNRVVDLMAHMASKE

[23] = Trypanosoma cruzi growth suppression in host cells – NIH3T3 host cells, beta-gal luminescence, confirmation (AID 2044); type: functional, cell-based;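 also: intracellular parasites grown in NIH/3T3 mouse fibroblasts as host cells; luminescent beta-galactosidase reporter signal from transgenic T. cruzi replicating inside host cells; inhibitors lower the luminescence signal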
[24] = NIH3T3 cell viability loss – ATP luminescence, mouse fibroblasts, counter-screen, dose response (AID 2010); type: functional, cell-based;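 also: cells exposed to compound for about 90 hours before reading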
[25] = molecular target: T5, Microphthalmia-associated transcription factor (Homo sapiens, UniProt O75030); assay: reducers of TRPM1 reporter luminescence, concentration series – cell-based, SK-MEL-5, cherry-picked, set 3, MITF inhibitor project, dose response (AID 493073); type: functional;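 also: SK-MEL-5 melanoma cells with luciferase driven by the MITF target TRPM1 promoter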
T5 sequence (O75030 whole entry): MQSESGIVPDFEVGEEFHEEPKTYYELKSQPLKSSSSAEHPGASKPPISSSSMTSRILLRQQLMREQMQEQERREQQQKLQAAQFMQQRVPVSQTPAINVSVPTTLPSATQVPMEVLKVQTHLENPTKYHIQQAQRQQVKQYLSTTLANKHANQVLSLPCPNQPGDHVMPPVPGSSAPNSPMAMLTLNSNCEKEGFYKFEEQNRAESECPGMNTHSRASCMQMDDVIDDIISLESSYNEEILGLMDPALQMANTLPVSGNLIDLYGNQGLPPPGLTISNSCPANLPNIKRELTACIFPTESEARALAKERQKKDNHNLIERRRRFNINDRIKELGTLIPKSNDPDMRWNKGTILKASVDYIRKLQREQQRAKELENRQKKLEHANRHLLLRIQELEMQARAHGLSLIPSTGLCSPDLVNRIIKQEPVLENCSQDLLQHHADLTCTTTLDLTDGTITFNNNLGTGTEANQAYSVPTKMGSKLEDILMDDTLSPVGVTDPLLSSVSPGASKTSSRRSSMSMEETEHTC

A-375 = assay: proliferation inhibition in MITF-low A375 cells – cell-based, cherry-pick samples, set 2, counter-screen for MITF modulator project, dose response (AID 540335); type: functional; conditions: Homo sapiens

COc1ccccc1-c1ccc2c(c1)C(C)(Cc1ccc(F)c(Cl)c1)C(=O)N2 (centres undefined)
EC50 (HEK293 [1]): > 59.6 µM (inactive)
EC50 (HEK293 [2]): > 59.6 µM (inactive)

COc1ccc(C(=O)c2c[nH]c3ccccc23)cc1
AC50 (HeLa): 41.9 µM (active)

CCCCNC(=O)c1cc2nc3c(c(C(F)(F)F)n2n1)CCc1ccccc1-3
AC50 (Cytochrome P450 2C19; read-out: AC50): 15.8 µM (inconclusive)
AC50 (Cytochrome P450 3A4 [3]): 7.94 µM (inconclusive)
AC50 (Cytochrome P450 2C9): 0.398 µM (inconclusive)
AC50 (Cytochrome P450 2D6): inconclusive

Cc1nc(NC(=O)c2ccccc2)sc1-c1csc(N)n1
AC50 [4]: 1.35 µM (active)
AC50 [5]: 1.26 µM (active)

COc1cc(/C=C2/SC(Nc3ccc(O)cc3)=NC2=O)ccc1O
IC50 [6]: 42.7 µM (inactive)
CC50 [7]: 61.1 µM (active)
IC50 [8]: 20 µM (active)

COc1ccc(-c2nccc(NCc3ccc(C)cc3)n2)cc1
AC50 [4]: 0.00697 µM (active)

Cc1cc(C)nc(SCC(=O)c2ccc3c(c2)OCO3)n1
IC50 [9]: > 100 µM (inactive)
IC50 [10]: > 100 µM (inactive)

COc1cccc(NC(=O)CSc2nc3c(c(-c4ccco4)c2C#N)CCCC3)c1
AC50 (Cytochrome P450 2C19): inconclusive
AC50 (Cytochrome P450 2D6): inconclusive
AC50 (Cytochrome P450 3A4 [11]): inconclusive

COc1ccc(/C=C(/C(=O)c2cccs2)N2C=CC=CC2=C(C#N)C#N)cc1
EC50 [12]: > 120 µM (not active)
EC50 [13]: > 120 µM (not active)
EC50 (H4): > 120 µM (not active)
Absolute IC50 (CHOP) [14]: 10 µM
Absolute IC50 (XBP1) (X-box-binding protein 1): 10 µM
CC50 (Vero): > 25 µM (active)
AC50 [5]: 8.18 µM (active)
EC50 (HEK293 [1]): > 59.6 µM (inactive)
EC50 (HEK293 [2]): > 59.6 µM (inactive)

CCc1ccc(CN(C)C(=O)CCc2nc3ccccc3n(-c3ccc(OC)cc3)c2=O)cc1
EC50 (HEK293 [15]): 12.7 µM (active)
IC50 (HEK293 [16]): > 20 µM (inactive)
IC50 (HEK293 [17]): > 20 µM (inactive)
EC50 [18]: 16 µM (active)
IC50 (HEK293 [19]): 5.96 µM (active)
IC50 (HEK293 [20]): > 20 µM (inactive)
EC50 [21]: > 260 µM (inactive)

COc1ccc(Cc2nc(N)nn2-c2ccccc2)cc1
IC50 [22]: > 100 µM (not active)
IC50 [9]: > 100 µM (inactive)
IC50 [10]: > 100 µM (inactive)

O=c1c2ccccc2oc2c1ccc1ccccc12
AC50 (HeLa): 32.3 µM (active)

CN(Cc1ccccc1)C1=CC(=[N+]2CCCCC2)CC(C)(C)C1
EC50 [23]: < 0.1 µM (active)
EC50 [24]: > 60 µM (not active)
IC50 [6]: > 80 µM (inactive)
AC50 [25]: 2.46 µM (active)
AC50 (A-375): 84.3 µM (active)
EC50 (cells): 0.032 µM (active)
